Test results from patent publication US20030225279A1, “Stavudine Polymorphic Form 1 process” (priority 2000, published 2003).
“Also recorded” adds a separate entry of the source.

Assays:
[1] = solid state, relative to Forms II and III; cited from earlier work
[2] = Solubility in supercritical carbon dioxide; type: physicochemical; details: supercritical carbon dioxide as antisolvent

| solubility in supercritical carbon dioxide [2] | Compound | thermodynamic stability / transformation to other polymorphic forms [1] |
| --- | --- | --- |
|  | Cc1cn([C@H]2C=C[C@@H](CO)O2)c(=O)[nH]c1=O [Form I, 2′, 3′-didehydro-3′-deoxythymidine] | stable and shows no transformations to other polymorphic forms; also recorded: most thermodynamically stable form, with no tendency for solid state conversion to the other Forms |
| practically insoluble | Cc1cn([C@H]2C=C[C@@H](CO)O2)c(=O)[nH]c1=O [Stavudine, 2′, 3′-didehydro-3′-deoxythymidine] |  |
